These are literature values, as cited in patent US6436414B1, “Active ingredient combinations or adducts of biotin and/or biotin derivatives and cyclodextrins and use of such active ingredient combinations in cosmetic preparations” (Beiersdorf AG, priority 1999, dated 2002).

For this data set the following is noted: according to the literature.

Regarding `O=C(O)CCCC[C@@H]1SC[C@@H]2NC(=O)N[C@@H]21` [biotin, D-cis-hexahydro-2-oxothieno[3,4-d]imidazole-4-valeric acid], the “solubility limit of biotin in aqueous solution” value is listed as “about 0.04%”.
